Values quoted from earlier work in PubChem BioAssay AID1259409 (Chemical Carcinogenesis Research Information System (CCRIS), 2018).

Tested on: rodent chemically induced tumor inhibition, incidence and multiplicity
Test: CCRIS tumor inhibitor studies
Details: Dose [Inhibitor]: 0, Promoter: NONE USED

O=C(O)C[CH2][Ge](=[O])[O][Ge](=[O])[CH2]CC(=O)O
tumour outcome (control, treated, inhibition, significance) (Carcinogen: 1,2-DIMETHYLHYDRAZINE, 540-73-8, 100 MG/KG BW 1/D FOR FIRST 8 WK THEN 1/2 D FOR 19 WK (STUDY DURATION: 27 WK), Route [Inhibitor]: GAVAGE, Species: RAT, Strain/Sex: WISTAR/MALE, Target Tissue: Type of Lesion: COLON: TUMOR, Dose [Carcinogen]: 20 MG/KG BW 1/WK FOR 15 WK): 36/36 (100%), 33/35 (94%), 6%, not significant
tumour outcome (control, treated, inhibition, significance) (Carcinogen: DIETHYLNITROSAMINE, 55-18-5, N-METHYL-N-NITROSOUREA, 684-93-5, N,N-DIBUTYLNITROSAMINE, 924-16-3, Carcinogen: DIETHYLNITROSAMINE, 55-18-5, N-METHYL-N-NITROSOUREA, 684-93-5, N,N-DIBUTYLNITROSAMINE, 924-16-3, 0.05% IN DIET BEGINNING POST CARCINOGEN TREATMENT AND CONTINUING TO WK 40 (STUDY DURATION: 40 WK), Route [Inhibitor]: ORAL, Species: RAT, Strain/Sex: F344/MALE, Target Tissue: Type of Lesion: LUNG: ADENOMA, Dose [Carcinogen]: 100 MG/KG DIETHYLNITROSAMINE ONCE FOLLOWED BY 20 MG/KG N-METHYL-N-NITROSOUREA ON D 2, 5, 8 AND 11 THEN 0.05% N-N-DIBUTYL): 9/16 (56%), 1/19 (5%), 91%, p<0.001
tumour outcome (control, treated, inhibition, significance) (Carcinogen: DIETHYLNITROSAMINE, 55-18-5, N-METHYL-N-NITROSOUREA, 684-93-5, N,N-DIBUTYLNITROSAMINE, 924-16-3, Carcinogen: DIETHYLNITROSAMINE, 55-18-5, N-METHYL-N-NITROSOUREA, 684-93-5, N,N-DIBUTYLNITROSAMINE, 924-16-3, 0.05% IN DIET BEGINNING POST CARCINOGEN TREATMENT AND CONTINUING TO WK 40 (STUDY DURATION: 40 WK), Route [Inhibitor]: ORAL, Species: RAT, Strain/Sex: F344/MALE, Target Tissue: Type of Lesion: LUNG: CARCINOMA, Dose [Carcinogen]: 100 MG/KG DIETHYLNITROSAMINE ONCE FOLLOWED BY 20 MG/KG N-METHYL-N-NITROSOUREA ON D 2, 5, 8 AND 11 THEN 0.05% N-N-DIBUTYL): 3/16 (19%), 0/19 (0%), 100%, not calculated
tumour outcome (control, treated, inhibition, significance) (Carcinogen: DIETHYLNITROSAMINE, 55-18-5, N-METHYL-N-NITROSOUREA, 684-93-5, N,N-DIBUTYLNITROSAMINE, 924-16-3, Carcinogen: DIETHYLNITROSAMINE, 55-18-5, N-METHYL-N-NITROSOUREA, 684-93-5, N,N-DIBUTYLNITROSAMINE, 924-16-3, 0.05% IN DIET BEGINNING POST CARCINOGEN TREATMENT AND CONTINUING TO WK 40 (STUDY DURATION: 40 WK), Route [Inhibitor]: ORAL, Species: RAT, Strain/Sex: F344/MALE, Target Tissue: Type of Lesion: THYROID: ADENOMA, Dose [Carcinogen]: 100 MG/KG DIETHYLNITROSAMINE ONCE FOLLOWED BY 20 MG/KG N-METHYL-N-NITROSOUREA ON D 2, 5, 8 AND 11 THEN 0.05% N-N-DIBUTYL): 8/16 (50%), 2/19 (11%), 78%, p<0.02
tumour outcome (control, treated, inhibition, significance) (Carcinogen: DIETHYLNITROSAMINE, 55-18-5, N-METHYL-N-NITROSOUREA, 684-93-5, N,N-DIBUTYLNITROSAMINE, 924-16-3, Carcinogen: DIETHYLNITROSAMINE, 55-18-5, N-METHYL-N-NITROSOUREA, 684-93-5, N,N-DIBUTYLNITROSAMINE, 924-16-3, 0.05% IN DIET BEGINNING POST CARCINOGEN TREATMENT AND CONTINUING TO WK 40 (STUDY DURATION: 40 WK), Route [Inhibitor]: ORAL, Species: RAT, Strain/Sex: F344/MALE, Target Tissue: Type of Lesion: THYROID: CARCINOMA, Dose [Carcinogen]: 100 MG/KG DIETHYLNITROSAMINE ONCE FOLLOWED BY 20 MG/KG N-METHYL-N-NITROSOUREA ON D 2, 5, 8 AND 11 THEN 0.05% N-N-DIBUTYL): 2/16 (13%), 1/19 (5%), 62%, not calculated
tumour outcome (control, treated, inhibition, significance) (Carcinogen: DIETHYLNITROSAMINE, 55-18-5, N-METHYL-N-NITROSOUREA, 684-93-5, N,N-DIBUTYLNITROSAMINE, 924-16-3, Carcinogen: DIETHYLNITROSAMINE, 55-18-5, N-METHYL-N-NITROSOUREA, 684-93-5, N,N-DIBUTYLNITROSAMINE, 924-16-3, 0.05% IN DIET BEGINNING POST CARCINOGEN TREATMENT AND CONTINUING TO WK 40 (STUDY DURATION: 40 WK), Route [Inhibitor]: ORAL, Species: RAT, Strain/Sex: F344/MALE, Target Tissue: Type of Lesion: URINARY BLADDER: CARCINOMA, Dose [Carcinogen]: 100 MG/KG DIETHYLNITROSAMINE ONCE FOLLOWED BY 20 MG/KG N-METHYL-N-NITROSOUREA ON D 2, 5, 8 AND 11 THEN 0.05% N-N-DIBUTYL): 1/16 (6%), 0/19 (0%), 100%, not calculated
tumour outcome (control, treated, inhibition, significance) (Carcinogen: DIETHYLNITROSAMINE, 55-18-5, N-METHYL-N-NITROSOUREA, 684-93-5 N,N-DIBUTYLNITROSAMINE, 924-16-3, Carcinogen: DIETHYLNITROSAMINE, 55-18-5, N-METHYL-N-NITROSOUREA, 684-93-5 N,N-DIBUTYLNITROSAMINE, 924-16-3, 0.05% IN DIET BEGINNING POST CARCINOGEN TREATMENT AND CONTINUING TO WK 40 (STUDY DURATION: 40 WK), Route [Inhibitor]: ORAL, Species: RAT, Strain/Sex: F344/MALE, Target Tissue: Type of Lesion: URINARY BLADDER: PAPILLOMA, Dose [Carcinogen]: 100 MG/KG DIETHYLNITROSAMINE ONCE FOLLOWED BY 20 MG/KG N-METHYL-N-NITROSOUREA ON D 2, 5, 8 AND 11 THEN 0.05% N-N-DIBUTYL): 4/16 (25%), 1/19 (5%), 80%, not calculated

CC(C(=O)O)c1cccc(C(=O)c2ccccc2)c1 (stereo not drawn)
tumour outcome (control, treated, inhibition, significance) (Carcinogen: AZOXYMETHANE, 25843-45-2, 100 PPM IN DIET BEGINNING 1 WK PRIOR TO CARCINOGEN TREATMENT FOR DURATION OF STUDY (STUDY DURATION: 54 WK), Route [Inhibitor]: ORAL, Species: RAT, Strain/Sex: F344/MALE, Target Tissue: Type of Lesion: COLON: ADENOCARCINOMA, Dose [Carcinogen]: 15 MG/KG/BW 1/WK FOR 2 WK): 58%, 56%, 3%, not calculated
tumour outcome (control, treated, inhibition, significance) (Carcinogen: AZOXYMETHANE, 25843-45-2, 100 PPM IN DIET BEGINNING 1 WK TO CARCINOGEN TREATMENT FOR DURATION OF STUDY (STUDY DURATION: 54 WK), Route [Inhibitor]: ORAL, Species: RAT, Strain/Sex: F344/MALE, Target Tissue: Type of Lesion: COLON: ADENOMA, Dose [Carcinogen]: 15 MG/KG/BW 1/WK FOR 2 WK): 6%, 3%, 50%, not calculated
tumour outcome (control, treated, inhibition, significance) (Carcinogen: AZOXYMETHANE, 25843-45-2, 200 PPM IN DIET BEGINNING 1 WK PRIOR TO CARCINOGEN TREATMENT FOR DURATION OF STUDY (STUDY DURATION: 54 WK), Route [Inhibitor]: ORAL, Species: RAT, Strain/Sex: F344/MALE, Target Tissue: Type of Lesion: COLON: ADENOCARCINOMA, Dose [Carcinogen]: 15 MG/KG/BW 1/WK FOR 2 WK): 58%, 28%, 52%, p<0.01
tumour outcome (control, treated, inhibition, significance) (Carcinogen: AZOXYMETHANE, 25843-45-2, 200 PPM IN DIET BEGINNING 1 WK PRIOR TO CARCINOGEN TREATMENT FOR DURATION OF STUDY (STUDY DURATION: 54 WK), Route [Inhibitor]: ORAL, Species: RAT, Strain/Sex: F344/MALE, Target Tissue: Type of Lesion: COLON: ADENOMA, Dose [Carcinogen]: 15 MG/KG/BW 1/WK FOR 2 WK): 6%, 6%, 0%, not significant
tumour outcome (control, treated, inhibition, significance) (Carcinogen: N-BUTYL-N-(4-HYDROXYBUTYL)NITROSAMINE, 3817-11-6, 40 MG/KG DIET FOR 24 WK BEGINNING 1 WK PRIOR TO CARCINOGEN TREATMENT (STUDY DURATION: 24 WK), Route [Inhibitor]: ORAL, Species: MOUSE, Strain/Sex: BDF/MALE, Target Tissue: Type of Lesion: URINARY BLADDER: TRANSITIONAL CELL CARCINOMA, Dose [Carcinogen]: 7.5 MG 1/WK FOR 8 WK): 22/75 (29%), 5/73 (7%), 76%, p<0.01
tumour outcome (control, treated, inhibition, significance) (Carcinogen: N-BUTYL-N-(4-HYDROXYBUTYL)NITROSAMINE, 3817-11-6, 80 MG/KG DIET FOR 24 WK BEGINNING 1 WK PRIOR TO CARCINOGEN TREATMENT (STUDY DURATION: 24 WK), Route [Inhibitor]: ORAL, Species: MOUSE, Strain/Sex: BDF/MALE, Target Tissue: Type of Lesion: URINARY BLADDER: TRANSITIONAL CELL CARCINOMA, Dose [Carcinogen]: 7.5 MG 1/WK FOR 8 WK): 22/75 (29%), 4/72 (6%), 79%, p<0.01
